In patent publication US20100174075A1, “USE OF NITRIC OXIDE-RELEASING STATINS IN THE TREATMENT OF PULMONARY ARTERIAL HYPERTENSION” (NICOX S.A., priority 2007, published 2010):

Key:
[1] = tested on: Human pulmonary artery smooth muscle cells (PASMCs); test: DNA synthesis by [3H-methyl]-thymidine incorporation in PDGF-stimulated PASMCs; assay type: cell-based; settings: PDGF-BB 5 ng/ml, 24 hours
Method: DNA synthesis was measured by [^3H-methyl]-thymidine incorporation over 24 hours as previously described.
Human pulmonary artery smooth muscle cells (PASMCs) were seeded in 48-well plates at a density of 5×10^4 cells/well in Dulbecc's modified Eagle medium (DMEM) containing 10% fetal bovine […] (FBS). Cells were allowed to adhere overnight, providing a monolayer of approximately 80-90% confluence, and then quiesced for 48 hours with daily changes in serum-free DMEM. Cells were subsequently incubated in fresh medium containing 0.25 μCi/well [^3H-methyl]-thymidine (GE Healthcare, Little Chalfont, Buck's, UK) and treated with pravastatin and NO-releasing pravastatin (Example 1 of WO 2004/105754) at stated concentrations in the presence and absence of recombinant human platelet-derived growth factor-BB (PDGF) (5 ng/ml). Four to six replicates were analysed per treatment and [^3H-methyl]-thymidine uptake determined by liquid scintillation analysis (2200CA TRI-CARB, United Technologies Packcard, Pangbourne, UK).

[2] = tested on: Endothelin-1 (ET-1) release from PASMCs; test: TGF-β1-stimulated ET-1 release from PASMCs (chemiluminescent immunoassay); assay type: cell-based, human; settings: 1 μM; TGF-β1 10 ng/ml; PASMCs conditioned medium
Method: Endothelin-1 (ET-1) release from PASMCs was measured in conditioned media using a chemiluminescent immunoassay system (QuantiGlo®, R&D Systems, UK). Cells were grown to confluence in 24-well plates (5×10^4 cells per well) in DMEM containing 10% FBS and serum-deprived for 24-hours prior to stimulation with transforming growth factor-[…] (TGF-β1) (10 ng/ml) and treatment with pravastatin and NO-releasing pravastatin (Example 1 of WO 2004/105754). Release experiments were also conducted in the presence of mevalonic acid (MVA), farnesylpyrophosphate (FPP), geranylgeranylpyrophosphate (GGPP) and inhibitors of geranylgeranyl transferase (GGTI-2133), farnesyl transferase (FTI-277) and Rho Kinase (Y27632). Production of MMP-9 was induced by dual stimulation with tumour necrosis factor-α (TNF-α) (10 ng/ml) and phorbol 12-[…] 13-acetate (PMA) (0.1 μM) and measured in conditioned medium using a Biotrack® ELISA-based immunoassay (GE Healthcare, UK). In the presence of TGF-β1 (10 ng/ml), ET-1 production by PASMCs increased markedly, compared with control serum-deprived cells.

Compound: CC[C@H](C)C(=O)O[C@H]1C[C@H](O)C=C2C=C[C@H](C)[C@H](CC[C@@H](O)C[C@@H](O)CC(=O)O)[C@H]21 [Pravastatin]
- [3H-Methyl]-thymidine incorporation (% of PDGF) ([1]; 1 μM): 95.0 ± 3.6 % of PDGF
- [3H-Methyl]-thymidine incorporation (% of PDGF) ([1]; 5 μM): 92.5 ± 4.2 % of PDGF
- [3H-Methyl]-thymidine incorporation (% of PDGF) ([1]; 10 μM): 89.5 ± 2.4 % of PDGF
- ET-1 (% of TGF-β1) [2]: 89.9 ± 12.8 % of TGF-β1
